From patent publication US9469615B2, “Quinoxalines and AZA-quinoxalines as CRTH2 receptor modulators” (Merck Sharp & Dohme Corp., priority 2010, dated 2016)

target: T1, hCRTH2 (Homo sapiens, UniProt Q9Y5Y4); experiment: Radioligand binding assay ([3H]PGD2 competition, HEK-hCRTH2 membranes); details: [3H]PGD2 binding, rated A-E (Table A)
T1 construct: expressed in transfected cells; host or cells: HEK (human embryonic kidney) cells expressing hCRTH2; membrane preparation
T1 sequence (Q9Y5Y4 1-395): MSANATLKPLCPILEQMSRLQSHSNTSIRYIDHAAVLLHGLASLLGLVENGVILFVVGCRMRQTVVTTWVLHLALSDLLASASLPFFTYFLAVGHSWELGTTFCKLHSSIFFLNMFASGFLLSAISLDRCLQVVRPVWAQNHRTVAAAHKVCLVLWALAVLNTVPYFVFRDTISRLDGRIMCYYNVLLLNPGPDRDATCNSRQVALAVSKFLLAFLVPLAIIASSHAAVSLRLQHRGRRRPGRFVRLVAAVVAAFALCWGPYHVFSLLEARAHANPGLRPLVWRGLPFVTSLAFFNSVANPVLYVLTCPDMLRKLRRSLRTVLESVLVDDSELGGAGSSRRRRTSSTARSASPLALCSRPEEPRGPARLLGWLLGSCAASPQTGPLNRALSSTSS
Method in brief: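 Filter-bound radioactivity was counted by scintillation after 60 min incubations at room temperature. Membranes (8-20 μg) from HEK cells expressing hCRTH2 competed test ligands against 3.0 nM [3H]PGD2 in Tris-HCl pH 7.4 buffer with EDTA and 2 mM MnCl2; 10 μM PGD2 set non-specific binding.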

Row | Compound | Ki [nM]
1 | NC(=O)c1ccc2nc(-c3ccccc3)c(CCCCC(=O)O)nc2c1 [compound 144, 5-(7-carbamoyl-3-phenylquinoxalin-2-yl)pentanoic acid] | 20.1 to 200
2 | C[C@H](NC(=O)c1ccc2nc(-c3ccc(C(F)(F)F)cc3)c(CCCCC(=O)O)nc2c1)c1ccccn1 [compound 146, 7-[[[1(S)-(2-pyridinyl)ethyl]amino]carbonyl]-3-[4-(trifluoromethyl)phenyl]-2-quinoxalinepentanoic acid] | 20.1 to 200
3 | N#Cc1ccc(CNC(=O)c2ccc3nc(-c4ccc(C(F)(F)F)cc4)c(CCCCC(=O)O)nc3c2)cc1 [compound 157, 7-[[[(4-cyanophenyl)methyl]amino]carbonyl]-3-[4-(trifluoromethyl)phenyl]-2-quinoxalinepentanoic acid] | 2.1 to 20
4 | O=C(O)Cc1ccc(CCc2nc3cc(C(=O)N4CCC(c5ccccc5)CC4)ccc3nc2-c2ccc(Cl)cc2)cc1 [compound 158, 4-[2-[3-(4-chlorophenyl)-7-[(4-phenyl-1-piperidinyl)carbonyl]-2-quinoxalinyl]ethyl] benzeneacetic acid] | 201 to 700
5 | O=C(O)Cc1ccc(CCc2nc3cc(C(=O)NCc4cccc(Cl)c4)ccc3nc2-c2ccc(Cl)cc2)cc1 [compound 159, 4-[2-[3-(4-chlorophenyl)-7-[[[(3-chlorophenyl)methyl]amino]carbonyl]-2-quinoxalinyl]ethyl] benzeneacetic acid] | 201 to 700
6 | CC(CCCc1nc2cc(C(=O)NCc3cccc(F)c3)ccc2nc1-c1ccc(Cl)cc1)C(=O)O (stereo not drawn) [compound 160, 3-(4-chlorophenyl)-7-[[[(3-fluorophenyl)methyl]amino]carbonyl]-alpha-methyl-2-quinoxalinepentanoic acid] | 2.1 to 20
7 | CC(CCCc1nc2cc(C(=O)NCc3ccc(F)cc3)ccc2nc1-c1ccc(Cl)cc1)C(=O)O (stereo not drawn) [compound 161, 3-(4-chlorophenyl)-7-[[[(4-fluorophenyl)methyl]amino]carbonyl]-alpha-methyl-2-quinoxalinepentanoic acid] | 2.1 to 20
8 | CC(CCCc1nc2cc(C(=O)N[C@@H](c3ccccc3)C(F)(F)F)ccc2nc1-c1ccc(Cl)cc1)C(=O)O (stereo partly drawn) [compound 163, 3-(4-chlorophenyl)-alpha-methyl-7-[[(2,2,2-trifluoro-1(S)-phenylethyl)amino]carbonyl]-2-2-quinoxalinepentanoic acid] | 2.1 to 20
9 | CC(CCCc1nc2cc(C(=O)NCc3ccc(C#N)cc3)ccc2nc1-c1ccc(Cl)cc1)C(=O)O (stereo not drawn) [compound 164, 3-(4-chlorophenyl)-7-[[[(4-cyanophenyl)methyl]amino]carbonyl]-alpha-methyl-2-quinoxalinepentanoic acid] | 2.1 to 20
10 | CC(CCCc1nc2cc(C(=O)N3CC(c4ccccc4)C3)ccc2nc1-c1ccc(Cl)cc1)C(=O)O (stereo not drawn) [compound 165, 3-(4-chlorophenyl)-alpha-methyl-7-[(3-phenyl-1-azetidinyl)carbonyl]-2-quinoxalinepentanoic acid] | 2.1 to 20
11 | CC(CCCc1nc2cc(C(=O)N[C@H](C)c3ccc(F)cc3)ccc2nc1-c1ccc(Cl)cc1)C(=O)O (stereo partly drawn) [compound 166, 3(4-chlorophenyl)-7-[[[1(R)-(4-fluorophenyl)ethyl]amino]carbonyl]-alpha-methyl-2-quinoxalinepentanoic acid] | 2.1 to 20
12 | CC(CCCc1nc2cc(C(=O)N[C@@H](C)c3ccc(F)cc3)ccc2nc1-c1ccc(Cl)cc1)C(=O)O (stereo partly drawn) [compound 167, 3-(4-chlorophenyl)-7-[[[1(S)-(4-fluorophenyl)ethyl]amino]carbonyl]-alpha-methyl-2-quinoxalinepentanoic acid] | 2.1 to 20
13 | CC(CCCc1nc2cc(C(=O)NC3Cc4ccccc4C3)ccc2nc1-c1ccc(Cl)cc1)C(=O)O (stereo not drawn) [compound 168, 3-(4-chlorophenyl)-7-[[(2,3-dihydro-1H-inden-2-yl)amino]carbonyl]-alpha-methyl-2-quinoxalinepentanoic acid] | 2.1 to 20
14 | CC(CCCc1nc2cc(C(=O)N3CCN(c4ccccc4)CC3)ccc2nc1-c1ccc(Cl)cc1)C(=O)O (stereo not drawn) [compound 169, 3-(4-chlorophenyl)-alpha-methyl-7-[(4-phenyl-1-piperazinyl)carbonyl]-2-quinoxalinepentanoic acid] | 2.1 to 20
15 | C[C@]1(c2ccccc2)CCCN(C(=O)c2ccc3nc(-c4ccccc4)c(CCCCC(=O)O)nc3c2)C1 [compound 170, 7-[(3(R)-methyl-3-phenyl-1-piperidinyl)carbonyl]-3-phenyl-2-quinoxalinepentanoic acid] | 2.1 to 20
16 | C[C@@]1(c2ccccc2)CCCN(C(=O)c2ccc3nc(-c4ccccc4)c(CCCCC(=O)O)nc3c2)C1 [compound 171, 7-[(3(S)-methyl-3-phenyl-1-piperidinyl)carbonyl]-3-phenyl-2-quinoxalinepentanoic acid] | 2.1 to 20
17 | N#Cc1cccc(C2CN(C(=O)c3ccc4nc(-c5ccccc5)c(CCCCC(=O)O)nc4c3)C2)c1 [compound 175, 7-[[3-(3-cyanophenyl)-1-azetidinyl]carbonyl]-3-phenyl-2-quinoxalinepentanoic acid] | 2.1 to 20
18 | O=C(O)CCCCc1nc2cc(C(=O)N3CCCC(c4ccccc4)C3)ccc2nc1-c1ccc(Cl)cc1 (stereo not drawn) [compound 176, 3-(4-chlorophenyl)-7-[(3-phenyl-1-piperidinyl)carbonyl]-2-quinoxalinepentanoic acid] | 2.1 to 20
19 | O=C(O)CCCCc1nc2cc(C(=O)N3CCOCC3)ccc2nc1-c1ccc(Cl)cc1 [compound 177, 3-(4-chlorophenyl)-7-(4-morpholinylcarbonyl)-2-quinoxalinepentanoic acid] | 2.1 to 20

Continued, values first:

Row | Ki [nM] | Compound
20 | 2.1 to 20 | O=C(O)CCCCc1nc2cc(C(=O)N3CCC(n4ccnc4)CC3)ccc2nc1-c1ccccc1 [compound 145, 5-(7-(4-(1H-imidazol-1-yl)piperidine-l-carbonyl)-3-phenylquinoxalin-2-yl)pentanoic acid]
21 | 2.1 to 20 | C[C@@H](NC(=O)c1ccc2nc(-c3ccc(C(F)(F)F)cc3)c(CCCCC(=O)O)nc2c1)c1ccccn1 [compound 147, 7-[[[1(R)-(2-pyridinyl)ethyl]amino]carbonyl]-3-[4-(trifluoromethyl)phenyl]-2-quinoxalinepentanoic acid]
22 | 0.1 to 2 | O=C(O)CCCCc1nc2cc(C(=O)N3CCC(c4ccccc4)CC3)ccc2nc1-c1ccc(C(F)(F)F)cc1 [compound 148, 7-[(4-phenyl-1-piperidinyl)carbonyl]-3-[4-(trifluoromethyl)phenyl]-2-quinoxalinepentanoic acid]
23 | 2.1 to 20 | O=C(O)CCCCc1nc2cc(C(=O)N[C@@H](c3ccccc3)C(F)(F)F)ccc2nc1-c1ccc(C(F)(F)F)cc1 [compound 149, 3-[4-(trifluoromethyl)phenyl]-7-[[(2,2,2-trifluoro-1(S)-phenylethyl)amino]carbonyl]-2-quinoxalinepentanoic acid]
24 | 0.1 to 2 | O=C(O)CCCCc1nc2cc(C(=O)NC3Cc4ccccc4C3)ccc2nc1-c1ccc(C(F)(F)F)cc1 [compound 150, 7-[[(2,3-dihydro-1H-inden-2-yl)amino]carbonyl]-3-[4-(trifluoromethyl)phenyl]-2-quinoxalinepentanoic acid]
25 | 0.1 to 2 | O=C(O)CCCCc1nc2cc(C(=O)NCc3cccc(Cl)c3)ccc2nc1-c1ccc(C(F)(F)F)cc1 [compound 151, 7-[[[(3-chlorophenyl)methyl]amino]carbonly]-3-[4-(trifluoromethyl)phenyl]-2-quinoxalinepentanoic acid]
26 | 0.1 to 2 | O=C(O)CCCCc1nc2cc(C(=O)N3CC(c4ccccc4)C3)ccc2nc1-c1ccc(C(F)(F)F)cc1 [compound 154, 7-[(3-phenyl-1-azetidinyl)carbonyl]-3-[4-(trifluoromethyl)phenyl]-2-quinoxalinepentanoic acid]
27 | 2.1 to 20 | O=C(O)CCCCc1nc2cc(C(=O)NCc3ccc(Cl)cc3)ccc2nc1-c1ccc(C(F)(F)F)cc1 [compound 155, 7-[[[(4-chlorophenyl)methyl]amino]carbonyl]-3-[4-(trifluoromethyl)phenyl]-2-quinoxalinepentanoic acid]
28 | 2.1 to 20 | O=C(O)CCCCc1nc2cc(C(=O)NCc3ccc(OC(F)(F)F)cc3)ccc2nc1-c1ccc(C(F)(F)F)cc1 [compound 156, 7-[[[[4-(trifluoromethoxy)phenyl]methyl]amino]carbonyl]-3-[4-(trifluoromethyl)phenyl]-2-quinoxalinepentanoic acid]
29 | 0.1 to 2 | CC(CCCc1nc2cc(C(=O)N3CCC(c4ccccc4)CC3)ccc2nc1-c1ccc(Cl)cc1)C(=O)O (stereo not drawn) [compound 162, 3-(4-chlorophenyl)-alpha-methyl-7-[(4-phenyl-1-piperidinyl)carbonyl]-2-quinoxalinepentanoic acid]
30 | 0.1 to 2 | O=C(O)CCCCc1nc2cc(C(=O)N3CC(c4ccccc4)C3)ccc2nc1-c1ccccc1 [compound 172, 3-phenyl-7-[(3-phenyl-1-azetidinyl)carbonyl]-2-quinoxalinepentanoic acid]
31 | 0.1 to 2 | O=C(O)CCCCc1nc2cc(C(=O)N3CC(c4ccccc4)C3)ccc2nc1-c1ccc(F)cc1 [compound 173, 3-(4-fluorophenyl)--7-[(3-phenyl-1-azetidinyl)carbonyl]-2-quinoxalinepentanoic acid]
32 | 0.1 to 2 | N#Cc1ccc(C2CN(C(=O)c3ccc4nc(-c5ccccc5)c(CCCCC(=O)O)nc4c3)C2)cc1 [compound 174, 7-[[3-(4-cyanophenyl)-1-azetidinyl]carbonyl]-3-phenyl-2-quinoxalinepentanoic acid]

same assay, conditions: [3H]PGD2 binding, values in text

Row | Compound | Ki [nM]
33 | NC(=O)c1ccc2nc(-c3ccccc3)c(CCCCC(=O)O)nc2c1 [compound 144, 5-(7-carbamoyl-3-phenylquinoxalin-2-yl)pentanoic acid] | 118
34 | C[C@H](NC(=O)c1ccc2nc(-c3ccc(C(F)(F)F)cc3)c(CCCCC(=O)O)nc2c1)c1ccccn1 [compound 146, 7-[[[1(S)-(2-pyridinyl)ethyl]amino]carbonyl]-3-[4-(trifluoromethyl)phenyl]-2-quinoxalinepentanoic acid] | 132
35 | O=C(O)Cc1ccc(CCc2nc3cc(C(=O)NCc4cccc(Cl)c4)ccc3nc2-c2ccc(Cl)cc2)cc1 [compound 159, 4-[2-[3-(4-chlorophenyl)-7-[[[(3-chlorophenyl)methyl]amino]carbonyl]-2-quinoxalinyl]ethyl] benzeneacetic acid] | 564
36 | O=C(O)CCCCc1nc2cc(C(=O)N3CC(c4ccccc4)C3)ccc2nc1-c1ccc(F)cc1 [compound 173, 3-(4-fluorophenyl)--7-[(3-phenyl-1-azetidinyl)carbonyl]-2-quinoxalinepentanoic acid] | 1.6
